Consider one compound from patent US11918582B2 (RAPT Therapeutics, Inc., priority 2021, dated 2024).

The test addresses T1, human HPK1 (MAP4K1) (Homo sapiens, UniProt Q92918).
T1 construct: Recombinant human HPK1 kinase domain was obtained from ThermoFisher (Cat. #PV6357) and SignalChem (Cat. #M23-11G); purchased ThermoFisher; SignalChem PV6357; M23-11G
T1 sequence (Q92918 17-274 limits assumed): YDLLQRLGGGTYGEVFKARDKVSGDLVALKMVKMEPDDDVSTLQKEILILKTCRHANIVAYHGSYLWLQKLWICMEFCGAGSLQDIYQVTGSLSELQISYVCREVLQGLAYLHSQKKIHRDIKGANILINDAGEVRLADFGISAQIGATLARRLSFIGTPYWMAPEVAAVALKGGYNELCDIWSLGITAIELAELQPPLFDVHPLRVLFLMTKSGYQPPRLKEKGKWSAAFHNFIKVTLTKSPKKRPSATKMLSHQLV
The test is described as follows: Biochemical assay for activity against HPK1 (ADP-Glo, MBP substrate). The conditions noted are these: recombinant human HPK1 kinase domain, 1 nM enzyme, ADP-Glo luminescence. In short, it runs like this: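 Recombinant human HPK1 kinase domain (1 nM solution) preincubated 15 min at room temperature with compounds in pH 7.5 HEPES buffer with NaCl, TCEP, MgCl2, Tween-20, BSA. MBP substrate with ATP added, reaction run 2 h at room temperature. ADP formation read by ADP-Glo luminescence to give IC50.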

pIC50: −log10 of the molar value.

In the case of `COc1cc2c(cc1Nc1ncc3cnn([C@H]4C[C@@H](CNC(C)=O)C4)c3n1)CN(C)CC2` [Example 126, N-((cis-3-(6-((6-methoxy-2-methyl-1,2,3,4-tetrahydroisoquinolin-7-yl)amino)-1H-pyrazolo[3,4-d]pyrimidin-1-yl)cyclobutyl)methyl)acetamide], the pIC50 (commonly −log10 of the IC50, conventionally taken in molar units) was 6.60 to 7.00.
